The text below walks through data of publication PMC10385825, “Synthesis of Benzocycloalkanone-Based Michael Acceptors and Biological Activities as Antimalarial and Antitrypanosomal Agents” (Molecules, 2023).

A word on the melting point: it is the temperature of the solid-liquid transition. In general, IC50 refers to the concentration that inhibits the measured activity by half.

For one data set, the system named is VERO cells. Briefly: Cytotoxicity assay in VERO cells (MTT). Format: cell-based. The conditions noted are these: Chlorocebus sabaeus, 72 h. On the procedure: The in vitro evaluations of compounds toxicity by MTT in VERO cells were performed as described in brief: VERO cells culture in DMEM, BSF 10%, were counted in suspension, seeded at 2 × 10^4 cells/well (100 μL) into a 96-well microplate, and incubated at 37 °C in a humidified 5% CO2 incubator for 24 h. After the incubation period, compounds were added in different concentrations: 50, 100, 150, 200, and 500 μM. The plate was incubated for 72 h in the same conditions. Then, 5 mg mL^−^1 of 3-(4,5-dimethylthiazol-2-yl)-2,5-diphenyl tetrazolium bromide (MTT) was added and incubated in darkness for 4 h. After this time, DMSO was added and the plate was read at 540 nm in a spectrophotometer Synergy HT (Biotek). The test was carried out in triplicate including untreated cells and reference drug controls.

In data set [1] the test system is T. cruzi epimastigotes (Y strain). Briefly: Trypanocidal activity, proliferation of T. cruzi epimastigotes (MTT). Format: cell-based. The conditions noted are these: Trypanosoma cruzi, 96 h, read-out: %ITcP: T. cruzi (epimastigotes) % inhibition proliferation. As to the method: The trypanocidal activity of compounds 7–39 was evaluated on the viability of T. cruzi epimastigotes (Y Strain). Parasites were cultivated in LIT medium supplemented with 10% FBS. The MTT method was used with minor modifications. Next, 2 × 10^6 parasites/mL were seeded in a 96-well plate, adding 50 μM of each derivative dissolved in DMSO (final concentration remained below 1%). The plate was incubated for 96 h at 29 °C. Then, 5 mg mL^−^1 of 3-(4,5-dimethylthiazol-2-yl)-2,5-diphenyl tetrazolium bromide (MTT) was added and incubated in darkness for 4 h. After this time, acidic isopropanol (4N) was added and the plate was read at 540 nm in a spectrophotometer Synergy HT (Biotek). Benznidazole (50 µM) was used as a reference drug.

The test system of the next data set is P. berghei ANKA. The data set is described as follows: Four-day suppressive test in P. berghei-infected mice. Format: in vivo, Plasmodium berghei (male Balb-C mice). On the procedure: Male Balb-C mice with a weight of 18–22 g were fed with a commercial diet ad libitum under standard procedures of animal care following the aforementioned method approved by the Ethics Committee of the Institute of Immunology. The animals were infected with a rodent malaria strain of Plasmodium berghei ANKA. A million infected erythrocytes, in phosphate-buffered saline solution (PBS, 10 mM, pH 7.4, 0.1 mL), were inoculated ip to infect the animal. The parasitemia was inspected by continuous microscopic examination of Giemsa-stained smears.
One million P. berghei, injected in the caudal vein i.v, were used to infect the mice (n = 6). After two hours of inoculation, the compounds that were active in vitro were dissolved in DMSO (0.1 M) and subsequently diluted with Saline-Tween 20 solution (2%), and administered ip for 4 days (20 mg kg^−^1). The parasite load was evaluated on the fourth day by examining Giemsa-stained smears. Chloroquine (20 mg kg^−^1) was used as the positive control and saline solution as the negative control. Non-treated mice were used as a baseline control for survival times. The survival days and percentage of parasitemia were used to express the results.

The test system of the next data set is β-hematin formation. Briefly: Inhibition of β-hematin formation in vitro. Format: biochemical. On the procedure:
The assay was performed according to previously reported protocols. Hemin chloride (50 μL, 4 mM) in DMSO (5.2 mg mL^−1) was pipetted into 96-well microplates. Different concentrations (0.1–100 mM) of the compounds in DMSO were added in triplicate (50 μL) with a final concentration of 0.025 mM–25 mM/well. Water (50 μL) or DMSO (50 μL) were used as controls. […] Next, the plates were incubated at 37 °C for 48 h and subsequently centrifuged (4000 rpm × 15 min). The supernatant was washed twice with DMSO (200 μL) and resuspended in NaOH (200 μL, 0.2 N). The solubilized products were diluted (1:2) with NaOH (0.1 N), and the plates were read in an ELISA reader at 405 nm (Microplate Reader, BIORAD-550). The results are expressed as % IβHF.

Values joined by “and” are separate entries in the source; they are usually repeats but may differ in a detail not shown here. Identical values can stand only once.

`COc1ccc2c(c1)C/C(=C\c1ccc(SCc3ccccc3)cc1)C2=O` [compound 8, (E)-2-[4-(Benzylthio)benzylidene]-2,3-dihydro-5-methoxyinden-1-one] gave a melting point of 166 to 168 °C.

`COc1ccc2c(c1)C(=O)/C(=C/c1ccc(SCc3ccccc3)cc1)C2` [compound 9, (E)-2-[4-(Benzylthio)benzylidene]-2,3-dihydro-6-methoxyinden-1-one] had a melting point of 175 to 177 °C.

In turn, `O=C1/C(=C/c2ccc(SCc3ccccc3)cc2)Cc2cc(Cl)ccc21` [compound 16, (E)-2-[4-(Benzylthio)benzylidene]-5-chloro-2,3-dihydroinden-1-one] displayed a melting point of 140 to 142 °C.

`O=C1/C(=C/c2ccc(SCc3ccccc3)cc2)Cc2cc(F)cc(F)c21` [compound 19, (E)-2-[4-(Benzylthio)benzylidene]-5,7-difluoro-2,3-dihydroinden-1-one] gave a melting point of 170 to 172 °C. Moreover, the 50% inhibitory concentration (IC50) with VERO cells was over 150 µM.

Consider `O=C1/C(=C/c2ccc(OCc3ccccc3)cc2)Cc2ccc(Cl)cc21` [compound 29, (E)-2-[4-(Benzyloxy)benzylidene]-6-chloro-2,3-dihydroinden-1-one], for which the melting point is 186 to 187 °C.

As for `O=C1/C(=C/c2ccc(OCc3ccccc3)cc2)Cc2cc(Cl)ccc21` [compound 28, (E)-2-[4-(Benzyloxy)benzylidene]-5-chloro-2,3-dihydroinden-1-one], the melting point was in the range of 189 to 190 °C.

Molecule `O=C1/C(=C/c2ccc(SCc3ccccc3)cc2)CCc2ccccc21` [compound 32, (E)-2-[4-(Benzylthio)benzylidene]-3,4-dihydronaphthalen-1(2H)-one] displayed a melting point of 99 to 100 °C. Also, the 50% inhibitory concentration (IC50) with VERO cells is over 150 µM. Besides, the inhibition at 50 µM in data set [1] came out at 43.7 ± 6.7%.

For `COc1cccc2c1CC/C(=C\c1ccc(SCc3ccccc3)cc1)C2=O` [compound 33, (E)-2-[4-(Benzylthio)benzylidene]-3,4-dihydro-5-methoxynaphthalen-1(2H)-one], the IC50 in the data set with VERO cells is over 150 µM. For the same molecule, the inhibition at 50 µM in data set [1] came to 51.1 ± 3.4%.

Molecule `O=C1/C(=C/c2ccc(OCc3ccccc3)cc2)Cc2c(Cl)cc(Cl)cc21` [compound 30, (E)-2-[4-(Benzyloxy)benzylidene]-4,6-dichloro-2,3-dihydroinden-1-one] returned a melting point of 202 to 203 °C.

For `COc1ccc2c(c1OC)C/C(=C\c1ccc(OCc3ccccc3)cc1)C2=O` [compound 23, (E)-2-[4-(Benzyloxy)benzylidene]-2,3-dihydro-4,5-dimethoxyinden-1-one], the melting point fell in the range of 167 to 168 °C.

Molecule `COc1ccc2c(c1)CC/C(=C\c1ccc(SCc3ccccc3)cc1)C2=O` [compound 34, (E)-2-[4-(Benzylthio)benzylidene]-3,4-dihydro-6-methoxynaphthalen-1(2H)-one] displayed a melting point of 122 to 124 °C.

Turning to `O=C1/C(=C/c2ccc(SCc3ccccc3)cc2)Cc2ccc(Cl)cc21` [compound 17, (E)-2-[4-(Benzylthio)benzylidene]-6-chloro-2,3-dihydroinden-1-one], the melting point was 204 °C.

In the case of `COc1ccc2c(c1)C(=O)/C(=C/c1ccc(SCc3ccccc3)cc1)CC2` [compound 35, (E)-2-[4-(Benzylthio)benzylidene]-3,4-dihydro-7-methoxynaphthalen-1(2H)-one], the IC50 with VERO cells is over 150 µM. The inhibition at 50 µM in data set [1] was 36.2 ± 6.1%.

With `O=C1/C(=C/c2ccc(SCc3ccccc3)cc2)Cc2ccccc21` [compound 7, (E)-2-[4-(Benzylthio)benzylidene]-2,3-dihydroinden-1-one], the melting point is 155 to 157 °C.

The molecule `O=C1/C(=C/c2ccc(SCc3ccccc3)cc2)Cc2cc3c(cc21)OCO3` [compound 14, (E)-2-[4-(Benzylthio)benzylidene]-2,3-dihydro-5,6-methylendioxyinden-1-one] yielded a melting point of 194 to 196 °C.

As for `COc1ccc(OC)c2c1C/C(=C\c1ccc(OCc3ccccc3)cc1)C2=O` [compound 25, (E)-2-[4-(Benzyloxy)benzylidene]-2,3-dihydro-4,7-dimethoxyinden-1-one], the melting point lay in the range of 209 to 210 °C.

Turning to `Cc1cccc2c1C/C(=C\c1ccc(SCc3ccccc3)cc1)C2=O` [compound 15, (E)-2-[4-(Benzylthio)benzylidene]-2,3-dihydro-4-methylinden-1-one], the melting point lay in the range of 167 to 169 °C.

On to `O=C(Cn1ccnc1[N+](=O)[O-])NCc1ccccc1` [Bnz, benznidazole, reference compound], for which, in the data set on VERO cells, the IC50 is over 200 µM. The inhibition at 50 µM in data set [1] was 60 ± 2.9%.

For `COc1ccc2c(c1)C/C(=C\c1ccc(OCc3ccccc3)cc1)C2=O` [compound 21, (E)-2-[4-(Benzyloxy)benzylidene]-2,3-dihydro-5-methoxyinden-1-one], the melting point was in the range of 141 to 142 °C.

Turning to `CCN(CC)CCCC(C)Nc1ccnc2cc(Cl)ccc12` (stereo not shown) [CQ, chloroquine, reference compound], in the data set with P. berghei ANKA (20 mg kg−1 ip once daily, days 1–4 post-infection, n = 6), the “Sd: Survival days (± SEM)” value was 28 ± 1.34 days and 28 ± 1.3 days. The “%P: Percentage of parasitemia (± SEM)” value in the data set with P. berghei ANKA (fourth day post-infection, 20 mg kg−1 ip once daily for 4 days, n = 6) was 1.4 ± 0.54%. Also, the Survival in the data set on P. berghei ANKA (surviving mice/total, 20 mg kg−1 ip for 4 days) was 5/6. For the same molecule, in the data set on β-hematin formation (concentration of 10 μM), the “%IβHF: Percentage inhibition β-hematin formation” value was found to be 95.34%. The 50% inhibitory concentration (IC50) with β-hematin formation (n = 3, read-out: IC50 (βHF) inhibition of β-hematin formation (± SEM)) stood at 0.18 ± 0.1 µM.

`COc1cc2c(cc1OC)C(=O)/C(=C/c1ccc(OCc3ccccc3)cc1)C2` [compound 24, (E)-2-[4-(Benzyloxy)benzylidene]-2,3-dihydro-5,6-dimethoxyinden-1-one] showed a melting point of 207 to 208 °C.

`COc1ccc2c(c1)C(=O)/C(=C/c1ccc(OCc3ccccc3)cc1)C2` [compound 22, (E)-2-[4-(Benzyloxy)benzylidene]-2,3-dihydro-6-methoxyinden-1-one] gave a melting point of 178 to 179 °C.

As to `COc1cc2c(c(OC)c1)C(=O)/C(=C/c1ccc(SCc3ccccc3)cc1)C2` [compound 13, (E)-2-[4-(Benzylthio)benzylidene]-2,3-dihydro-5,7-dimethoxyinden-1-one], the melting point was 176 to 178 °C.

In turn, `O=C1/C(=C/c2ccc(OCc3ccccc3)cc2)Cc2cc(F)cc(F)c21` [compound 31, (E)-2-[4-(Benzyloxy)benzylidene]-5,7-difluoro-2,3-dihydroinden-1-one] registered a melting point of 204 to 206 °C.

For `O=C1/C(=C/c2ccc(OCc3ccccc3)cc2)Cc2ccccc21` [compound 20, (E)-2-[4-(Benzyloxy)benzylidene]-2,3-dihydroinden-1-one], the melting point stood at 170 °C.

Regarding `Cc1cccc2c1C/C(=C\c1ccc(OCc3ccccc3)cc1)C2=O` [compound 27, (E)-2-[4-(Benzyloxy)benzylidene]-2,3-dihydro-4-methylinden-1-one], the melting point lay in the range of 127 to 129 °C.

As to `O=C1/C(=C/c2ccc(SCc3ccccc3)cc2)Cc2c(Cl)cc(Cl)cc21` [compound 18, (E)-2-[4-(Benzylthio)benzylidene]-4,6-dichloro-2,3-dihydroinden-1-one], the melting point was in the range of 181 to 183 °C.
